Results on two molecules are retold here after patent US20020086427A1, “Inducible eukaryotic expression system that regulates protein translation” (priority 2000, published 2002).

Experiment [1] has as its system hEpo expression in C2C12 mouse myoblast cell line. Kind of experiment: hEpo expression (ELISA of supernatant) in C2C12 myoblasts transfected with stop-codon-mutated hEpo constructs, with or without aminoglycoside. The class given is cell-based. As to conditions: for induction of hEpo expression compared to cells not given aminoglycoside: 0.2 mg/ml aminoglycoside, stop-codon-mutated hEpo constructs in C2C12 cells; for read-through of the stop codon mutation: in vitro, C2C12 cells. How it is done:
In this example, three different mutated human Epo genes (prepared as described in Example 1) were individually transfected into myoblasts and expression of the genes was subsequently regulated by application of two different aminoglycosides.
The C2C12 mouse myoblast cell line (ATCC) was maintained in DMEM, 10% fetal bovine serum, 1% penicillin/streptomycin and 1% glutamine.
C2C 12 cells were plated at […] on the afternoon before transfection. 15 μg of wildtype or mutated hEpo plasmid DNA was mixed with 50 μl of Lipofectamine (Gibco) and 2 mls of Opti-MEM (Gibco) and incubated at room temperature for 15 minutes for DNA/liposome complexes to form. Cells were washed twice with 5 mils of Opti-MEM. Two ml of Opti-MEM and the DNA/liposome complexes were added and incubated at 37° C. in 5% CO2 for 5 hours. Eight ml of growth medium (DMEM+10% FBS) was added to cells and incubated overnight at 37° C.
The following day, 10 mls of fresh growth medium was added to the cells with or without 0.2 mg/ml of one of two aminoglycosides: G418 (Sigma) or gentamycin sulfate (Sigma). Cells were allowed to incubate for an additional 72 hours and a sample of the supernatant was taken for transgene analysis at 24, 48, and 72 hours.
Supernatants from transfected cells were analyzed for hEpo expression using the Quantikine IV human Epo ELISA kit (R&D Systems). Samples were diluted within the linear range of the assay using specimen diluent and assayed using a microplate reader (Molecular Devices) at 450 nm.
In this example, a series of additional mutated human Epo constructs were prepared, into which stop codon mutations were introduced at different codon positions from those described in Example 1. These constructs were introduced into C2C12 mouse myoblasts as described in Example 2 and the inducibility of hEpo activity from these constructs using either gentamycin sulfate (GS) or G418 was examined as described in Example 2. The constructs were prepared by standard PCR mutagenesis, as described in Example 1, and introduced a stop codon mutation into the human Epo sequence at either nucleotide position 307 (pVR1012hEpo.307), position 434 (pVR1012hEpo.434), position 208 (pVR1012hEpo.208), position 214 (pVR1012hEpo.214) or position 199 (pVR1012hEpo. 199).
Data for constructs with mutations at either nucleotide position 437 (pVR1012hEpo.437), position 454 (pVR1012hEpo.454) or position 526 (pVR1012hEpo.526), prepared as described in Example 1, are included for comparison purposes.

The test system of experiment [2] is naturally-occurring premature stop codon mutations in the dystrophin gene. As to conditions: mice; cited from earlier work.

Turning to `CN[C@@H]1[C@@H](O)[C@@H](O[C@@H]2[C@@H](O)[C@H](O[C@H]3O[C@H]([C@@H](C)O)[C@@H](O)[C@H](O)[C@H]3N)[C@@H](N)C[C@H]2N)OC[C@]1(C)O` [G418], in experiment [1], the “induction of hEpo expression compared to cells not given aminoglycoside” value was 20-50 fold and the “read-through of the stop codon mutation” value came to 10%.

As to gentamycin sulfate, in experiment [1], the “induction of hEpo expression compared to cells not given aminoglycoside” value was 6-8 fold and the “read-through of the stop codon mutation” value came to 3%. Moreover, in experiment [2], the effective dosage is listed as 17 mg/kg.
